Measurements: ChEMBL document CHEMBL2321828, “Interrogation of the Active Sites of Protein Arginine Deiminases (PAD1, -2, and -4) Using Designer Probes” (ACS Med Chem Lett, 2013)

Assays:
[1] = target: Protein-arginine deiminase type-2 (Mus musculus) (UniProt Q08642); assay: Ratio of Kinact to Ki for mouse PAD2 using BAEE as substrate after 30 mins
[2] = target: Protein-arginine deiminase type-4 (Homo sapiens) (UniProt Q9UM07); assay: Ratio of Kinact to Ki for human PAD4 using BAEE as substrate after 30 mins
Chain of Protein-arginine deiminase type-4 (Homo sapiens) (Q9UM07 whole entry): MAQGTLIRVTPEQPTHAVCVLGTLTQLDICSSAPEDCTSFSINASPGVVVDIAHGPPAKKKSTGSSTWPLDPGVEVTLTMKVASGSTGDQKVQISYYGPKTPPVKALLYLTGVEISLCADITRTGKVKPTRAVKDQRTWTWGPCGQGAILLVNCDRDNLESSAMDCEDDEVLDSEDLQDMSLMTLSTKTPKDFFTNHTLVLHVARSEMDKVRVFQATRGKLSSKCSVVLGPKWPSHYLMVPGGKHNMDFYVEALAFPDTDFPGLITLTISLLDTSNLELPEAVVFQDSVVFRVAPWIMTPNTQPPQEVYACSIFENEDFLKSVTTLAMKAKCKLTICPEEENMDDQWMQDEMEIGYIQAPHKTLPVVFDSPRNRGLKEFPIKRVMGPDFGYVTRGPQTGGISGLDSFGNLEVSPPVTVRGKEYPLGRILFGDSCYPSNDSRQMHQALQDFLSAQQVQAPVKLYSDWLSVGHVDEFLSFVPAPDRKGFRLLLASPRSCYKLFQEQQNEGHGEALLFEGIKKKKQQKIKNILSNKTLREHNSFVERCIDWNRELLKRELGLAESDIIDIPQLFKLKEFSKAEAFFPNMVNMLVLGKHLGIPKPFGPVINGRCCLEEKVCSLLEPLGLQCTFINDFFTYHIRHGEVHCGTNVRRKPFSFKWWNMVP

[3] = target: T1, Protein-arginine deiminase type-1 (Homo sapiens) (UniProt Q9ULC6); assay: Ratio of Kinact to Ki for human PAD1 using BAEE as substrate after 30 mins
T1 sequence (whole entry): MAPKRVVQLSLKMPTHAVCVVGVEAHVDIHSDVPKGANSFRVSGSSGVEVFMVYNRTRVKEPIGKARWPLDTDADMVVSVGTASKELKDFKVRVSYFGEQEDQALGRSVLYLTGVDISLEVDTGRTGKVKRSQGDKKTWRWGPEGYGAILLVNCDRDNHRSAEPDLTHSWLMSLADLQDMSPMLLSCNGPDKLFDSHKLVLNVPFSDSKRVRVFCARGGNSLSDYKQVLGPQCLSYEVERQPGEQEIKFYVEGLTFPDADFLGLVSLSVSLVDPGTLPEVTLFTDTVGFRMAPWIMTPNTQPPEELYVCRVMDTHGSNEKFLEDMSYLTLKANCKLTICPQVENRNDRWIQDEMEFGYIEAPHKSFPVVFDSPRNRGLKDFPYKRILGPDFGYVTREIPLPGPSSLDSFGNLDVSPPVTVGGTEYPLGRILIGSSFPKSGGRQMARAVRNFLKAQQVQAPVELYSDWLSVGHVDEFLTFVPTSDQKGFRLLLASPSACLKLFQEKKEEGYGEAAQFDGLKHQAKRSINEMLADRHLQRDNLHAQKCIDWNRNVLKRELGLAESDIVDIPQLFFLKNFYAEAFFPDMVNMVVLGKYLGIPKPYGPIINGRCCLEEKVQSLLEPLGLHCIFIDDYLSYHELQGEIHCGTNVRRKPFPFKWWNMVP

Chain of Protein-arginine deiminase type-2 (Mus musculus) (Q08642 whole entry): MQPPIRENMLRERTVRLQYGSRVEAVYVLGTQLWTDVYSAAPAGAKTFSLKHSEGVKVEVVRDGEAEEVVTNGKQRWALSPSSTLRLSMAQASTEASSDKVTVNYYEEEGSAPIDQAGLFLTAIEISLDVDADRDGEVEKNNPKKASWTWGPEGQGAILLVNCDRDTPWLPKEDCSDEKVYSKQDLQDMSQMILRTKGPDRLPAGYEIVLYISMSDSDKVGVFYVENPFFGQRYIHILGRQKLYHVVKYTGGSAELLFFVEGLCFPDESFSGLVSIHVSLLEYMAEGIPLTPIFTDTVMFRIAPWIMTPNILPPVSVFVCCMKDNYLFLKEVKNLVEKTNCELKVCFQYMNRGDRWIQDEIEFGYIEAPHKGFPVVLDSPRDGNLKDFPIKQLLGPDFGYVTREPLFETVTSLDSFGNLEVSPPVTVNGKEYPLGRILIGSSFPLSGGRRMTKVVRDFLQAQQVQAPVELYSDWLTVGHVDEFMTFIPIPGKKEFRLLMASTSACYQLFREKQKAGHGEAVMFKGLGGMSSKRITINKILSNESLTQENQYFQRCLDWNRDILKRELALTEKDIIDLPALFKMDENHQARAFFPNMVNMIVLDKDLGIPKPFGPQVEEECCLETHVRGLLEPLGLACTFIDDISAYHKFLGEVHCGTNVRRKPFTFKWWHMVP

COC(=O)[C@H](CCCNC(=N)CCl)NC(C)=O
Ratio [1]: 167 M⁻¹ min⁻¹ | Ratio [2]: 865 M⁻¹ min⁻¹ | Ratio [3]: 497 M⁻¹ min⁻¹

COC(=O)[C@H](CCCCNC(=N)CCl)NC(C)=O
Ratio [1]: 120 M⁻¹ min⁻¹ | Ratio [2]: 50 M⁻¹ min⁻¹ | Ratio [3]: 62 M⁻¹ min⁻¹

N=C(N)CCl
Ratio [1]: 9 M⁻¹ min⁻¹ | Ratio [2]: 60 M⁻¹ min⁻¹ | Ratio [3]: 32 M⁻¹ min⁻¹

COC(=O)[C@H](CCNC(=N)CCl)NC(C)=O
Ratio [1]: 50 M⁻¹ min⁻¹ | Ratio [2]: 183 M⁻¹ min⁻¹ | Ratio [3]: 111 M⁻¹ min⁻¹
